Results on 1 compound are retold here after US20230151386A1, “Apparatus for Improved Transfection Efficiency and / or Protein Expression and Method of Use Thereof” (St Andrews Pharmaceutical Technology Ltd., priority 2020, published 2023).

The test system of the assay is p53alpha. Briefly: Western blot of p53 isoforms in HCT 116 cells after doxorubicin with or without pulsed technology. The format is cell-based, Human. Conditions: 0.25 μM for 1 hour. As to the method:
Human Colon Tumour (HCT) 116 cells (adherent cells) (ATCC, USA-ATCC® CCL-247™) were seeded at a density of 3×10^5 cells per well in two CELLSTAR®6-well plates (9.6 cm^2) in a final volume of 5 mL Dulbeccos Modified Eagle Medium (DMEM) (Thermo Fisher, USA)+10% Fetal Bovine Serum (FBS) (Hyclone, USA) 24 hours before treatment.
The naked agent used was Doxorubicin (0.25 μM) (Sigma Aldrich) in absolute ethanol and was given to the cells for a 1 hour treatment period and incubated at 37° C., at 5% CO^2.
After treatment the media was removed and fresh media was added to the cells. One of the plates was incubated directly at 37° C., at 5% CO^2 and the second plate was placed in a different incubator and pulsed using the pulsed technology of the present invention at 37° C., at 5% CO^2.
Protein extracts were collected at 3 hours, 6 hours, 9 hours, 16 hours or 24 hours of treatment for analysis by SDS-page.
1. For protein extraction the cells were washed twice with ice-cold PBS and then lysed in NP-40 extraction buffer (50 mM Tris ph 7.5; 10% glycerol; 0.1% “NP-40 Alternative” (Merck Millipore, USA); 100 mM NaCl; 0.2 mM EDTA) supplemented with 1× Complete™ Protease Inhibitor Cocktail (Roche, Switzerland). Extracts were sonicated (20 seconds, 20% amplitude) and protein concentration was determined using BCA™ Protein Assay Kit (ThermoFisher Scientific USA) according to the manufacturers recommendations.
1. Protein extracts (15/20 μg depending on the experiment) were supplemented with 0.1M dithiothreitol (DTT) and 1×LDS buffer (Invitrogen, USA) and were heated at 95° C. for 10 min before loading on NuPAGE 10% Bis-Tris polyacrylamide gels (Invitrogen, USA).
2. Protein samples were separated by electrophoresis (100V) using 1×MOPS Running Buffer. Transfer of proteins was performed at 12V overnight onto a nitrocellulose membrane (Protran 0.1 μm from GE Healthcare, USA) in 1× Transfer Buffer supplemented with 20% methanol. 1× Transfer Buffer is prepared from 10× Wet blot solution containing 144 g of glycine and 30 g Tris-Base in a final volume of 1 L milli-Q water.
3. Membranes were blocked for 30 min in 5% BSA diluted in PBS—0.1% Tween20 before being incubated overnight with a primary antibody (Mouse monoclonal antibody D01). After a wash of 15 min. in PBS-Tween20, membranes were incubated for 1 h with a corresponding secondary antibody (HRP conjugated Donkey anti Mouse). […]
At the end of the incubation membranes were washed twice with PBS-Tween20 for 15 min followed by a final 10 min. wash with PBS. The chemiluminescence signal was detected on Hyperfilm™ ECL (Cytiva, USA) using the Amersham ECL Western Blotting Detection System (Cytiva, USA).
On the technique in general: A western blot detects proteins with antibodies after separation by electrophoresis.

`COc1cccc2c1C(=O)c1c(O)c3c(c(O)c1C2=O)C[C@@](O)(C(=O)CO)C[C@@H]3O[C@H]1C[C@H](N)[C@H](O)[C@H](C)O1` [doxorubicin, Doxorubicin]: the “H2AX expression (ionising radiation marker, Western Blot)” value (pulsed technology vs control arms, FIG. 13) was “no observed change”. Further, the “p53alpha expression (Western Blot)” value by setting is: (pulsed technology vs control, after 16 hours, FIG. 14) “significant overproduction”; (then pulsed technology vs control, 3 to 24 hours, FIG. 13) “upregulated”. The “expression of other p53 isoforms d133p53alpha, d133p53beta and d160p53beta (Western Blot)” value (then pulsed technology vs control, FIG. 13) is “more upregulated”.
